Source: paper PMC7144209, “Design, synthesis and anticancer activity of naphthoquinone derivatives” (Journal of Enzyme Inhibition and Medicinal Chemistry, 2020)

Key:
SGC-7901 = experiment: MTT cell viability assay, SGC-7901 cells; type: cell-based, human; conditions: Homo sapiens, SGC-7901, 48 h, n = 3
Method: (§1) MGC-803, SGC-7901, U87 and SMMC-7721 cell lines were cultured in DMEM supplemented with 10% foetal bovine serum, 100 IU/mL penicillin/streptomycin. The cells were incubated in an atmosphere containing 5% CO2 at 37 °C.
(§2) MGC-803, SGC-7901, U87 and SMMC-7721 cells were plated in 96-well plate at 7000 per well. Cells were incubated with the different concentrations of the compounds for 48 h. Subsequently, MTT (0.5 mg/mL) were used to test the cell viability, then 150 μL DMSO was added to each well after cells were incubated for 4 h and the absorbance was measured at 492 nm.

U87 = experiment: MTT cell viability assay, U87 cells; type: cell-based; conditions: Homo sapiens, U-87 MG, 48 h, n = 3
Method: as §1, §2

SMMC-7721 = experiment: MTT cell viability assay, SMMC-7721 cells; type: cell-based; conditions: Homo sapiens, 48 h, n = 3
Method: as §1, §2

[1] = system: SGC-7901, MGC-803, SMMC-7721, U-87 cell lines; experiment: MTT anticancer activity, summary in words over the cell line panel; type: cell-based; conditions: MTT assay
Method: as §2
Compounds 1–24 were detected for anticancer activities against SGC-7901, MGC-803, SMMC-7721, U-87 cell lines in vitro by the MTT assay, and ADM was used as the positive control. From Table 1, when the phenolic hydroxyls of naphthoquinone moiety were converted to ether, the activity was missing. […] So colony formation assay of this compound (Figure 4) was used to investigate the effect of it on cell proliferation in SGC-7901 cells. The experiment examined the ability for producing colonies after the cells were treated with the cell death agents[35]^,[36].

L02 = experiment: MTT cell viability assay, L02 cells; type: cell-based; conditions: Homo sapiens, n = 3
MGC-803 = experiment: MTT cell viability assay, MGC-803 cells; type: cell-based; conditions: Homo sapiens, MGC-803, 48 h, n = 3
Method: as §1, §2

IC50 (SGC-7901) [µM] | IC50 (U87) [µM] | IC50 (SMMC-7721) [µM] | IC50 (MGC-803) [µM] | SMILES | anticancer activity (in words) [1] | IC50 (L02) [µM]
20.8 ± 0.5 | 3.8 ± 1.7 | 15.9 ± 0.2 | 6.7 ± 2.4 | CC(C)=CCC(OC(=O)CCC(=O)NCCc1cccc(Cl)c1)C1=CC(=O)c2c(O)ccc(O)c2C1=O (stereo not drawn) [Compound 17, 1-(5,8-dihydroxy-1,4-dioxo-1,4-dihydronaphthalen-2-yl)-4-methylpent-3-en-1-yl-4-((3-chlorophenethyl)amino)-4-oxobutanoate] | good activity | 11.4 ± 1.8
7.8 ± 3.7 | 3.46 ± 0.31 | 16.9 ± 2.2 | 10.2 ± 2.9 | CC(C)=CCC(OC(=O)CCC(=O)Nc1ccc(OC(F)(F)F)cc1)C1=CC(=O)c2c(O)ccc(O)c2C1=O (stereo not drawn) [Compound 13, 1-(5,8-dihydroxy-1,4-dioxo-1,4-dihydronaphthalen-2-yl)-4-methylpent-3-en-1-yl-4-oxo-4-((4-(trifluoromethoxy)phenyl)amino)butanoate] | good activity | 15.8 ± 1.1
2.25 ± 1.5 | 3.75 ± 0.77 | 9.5 ± 0.8 | 8.4 ± 3.1 | CC(C)=CCC(OC(=O)CCC(=O)Nc1ccc(F)c(C(F)(F)F)c1)C1=CC(=O)c2c(O)ccc(O)c2C1=O (stereo not drawn) [Compound 11, 1-(5,8-dihydroxy-1,4-dioxo-1,4-dihydronaphthalen-2-yl)-4-methylpent-3-en-1-yl-4-((4-fluoro-3-(trifluoromethyl)phenyl)amino)-4-oxobutanoate] | good activity | 4 ± 0.1
